“Also recorded” adds a separate entry of the source.
Key:
[1] = tested on: MBNL1; assay: Visualization and quantification of MBNL1 release in DM1 fibroblasts; format: cell-based, human; details: 100 μM
Method: FIG. 4. Visualization and quantification of MBNL1 release (A). Visualization of MBNL1 release for VLT002: Upper row: Untreated DM1 fibroblasts with MBNL1 localizing as ribonuclear foci (see dots in middle and right pictures) to the nucleus (DAPI, detected as gray spherical shadow in left and right pictures). […] (B) Quantification of the area (into the nucleus), where MBNL1 present (Photoshop software), reflects the MBNL1 release after VLT002, VLT025, VLT045, VLT049 and VLT040 treatment (100 μM).
At the same time human cells were recollected for foci counting. Some (150,000-300,000) were prepared for Muscleblind (MBNL1) detection (see FIG. 4). After PBS washes, cells were probed overnight, at 4° C. with anti-MBNL1 antibody (1:5000 dilutions, A2764 antibody) in 1×PBS. After washing cells with 1×PBS, cells were incubated with goat anti-rabbit Alexa 488 (1:500 dilution) for 2 h at RT. Cells were washed 2 times, for 10 min at room temperature with 1×PBS and then mounted onto glass slides using a hard-set mounting media that contains DAPI (Vectashield). Cells were imaged on a Leica microscope.

[2] = tested on: FAM-(CUG)10 RNA; assay: Gel retardation assay (fluorescence EMSA) with FAM-(CUG)10; format: binding
Method: FIG. 6. Study of the binding of some compounds of Formula I (VLT002, VLT025 and VLT026) to FAM-(CUG)10 (repeat tract present in DM1, HDL2, SCA8 diseases) by means of gel retardation assays.
Fluorescence Electrophoretic Mobility Shift Assay to test RNA-compound binding. Briefly, an aliquot of carboxyfluorescein (FAM)-CUG10 RNA (DM1, HDL2, SCA8; see FIG. 6) was heated at 70° C. for 5 min and diluted to 300 nM. The binding reaction with compounds was then carried out as described in (Garcia-Lopez A et al. Proc. Natl. Acad. Sci. USA. 108(29):11866-71 (2011)). The reaction mix was loaded onto 8% polyacrylamide nondenaturing gels, and electrophoresis was conducted at 4° C. in TB 1× for approximately 30 min at 240V, followed by fluorescence visualization. Quantification of the free RNA band intensity was carried out using the ImageJ software. A non-linear regression analysis was used to calculate EC50, based on a total of three experimental replicates. Same approach was developed with (FAM)-CCUG8 (DM2), CAG10 (SCA3), CGG10 (FXTAS), GGGGCC5 (ALS/FSD), UGGAA6 (SCA31) probes (see FIG. 9).

[3] = tested on: (CUG)23 RNA hairpin; assay: 2-Aminopurine fluorescence assay of hairpin RNA unfolding; format: biochemical; details: for modification of the hairpin loops formed by the CUG repeats (2-AP fluorescence): (CUG)23 RNA, dose-range
Method: FIG. 7. […] Measurements of the fluorescence emitted (Y-axis), measured as relative fluorescence units (RFU), by 2-aminopurine in a (CUG)23 RNA (1 μM) in the presence of different compounds (dose-range approach), relative to the fluorescence emitted by the free RNA. […] These effects were not observed when incubating the RNA with DMSO (not shown), or with the small molecule pentamidine, published as a compound able to disrupt MBNL1 binding to CUG hairpins (Warf M B et al. Proc. Natl. Acad. Sci. USA 106:18551-56 (2009)). * indicates p-value <0.05 ** p-value <0.005 *** p-value p<0.0005.
Aminopurine Fluorescence assay to detect hairpin double strand RNA unfolding. An aliquot of 2-aminopurine (2AP)-CUG23 RNA (1 μM in binding buffer) was heated at 90° C. for 3 min, placed on ice, and further diluted to 30 nM in a final volume of 1 mL in binding buffer.

[4] = tested on: Serca1 exon 22 splicing; assay: Semi-quantitative RT-PCR of Serca1 splicing in HSA LR mouse skeletal muscle; format: in vivo; details: three days a/i
Method: FIG. 8. Recovering of disease phenotypes (molecular, histological and functional) in in vivo DM1 mice (HSA^LR). Upper section: VLT002 and VLT025 suppressed splicing defects in DM1 mouse skeletal muscles. VLT002 (10 μg) and VLT025 (100 μg) were intramuscular injected in the right tibialis anterior (TA) and left quadriceps (Q), respectively, of HSA^LR mice that expressed 300 CTG repeats. […] All graphs show the mean and SEM from VLT002 and VLT025-responsive animals. Middle section: Immunofluorescent detection of trans-membrane Clcn1 protein (cell outlines in gray) in quadriceps sections of no-DM1 mouse (control) and HSA^LR mice without treatment (10150.5 QD-DMSO treated) and after VLT025 treatment (10150.5 QI).
Additional assays involved: • Reverse Transcription-PCR (RT-PCR) to detect levels of normal/aberrant splicing events in specific genes. […] Serca 1, Cypher or cTNNT genes reverse transcription were performed and quantification of normal/aberrant spliced band forms was obtained (ImageJ software) after running PCR products in 2% agarose gels. […] Muscle area was quantified (see FIG. 3) by binarizing images (equal dimensions) and quantifying pixels (%) within muscle tissue with ImageJ software. […] A minimum of 8 flies were analyzed in each case.

Compound | MBNL1 sequestration / MBNL1 release (nuclear area where MBNL1 present) [1] | formation of foci (MBNL1 ribonuclear foci) [1] | binding to FAM-CUG10 [2] | modification of the hairpin loops formed by the CUG repeats (2-AP fluorescence) [3] | splicing defects (exon 22) of Serca1 ([4]; 10 μg intramuscular, right tibialis anterior) | decreases in the fluorescence of 2-AP ([3]; change to more structured double-stranded) | splicing defects (exon 22) of Serca1 ([4]; 100 μg intramuscular, left quadriceps)
CN(C)CCc1cc2c(c3c1ccc1ccccc13)OCO2 [VLT002, Stephenanthrine] | MBNL1 sequestration is relieved; also recorded: relieve MBNL1 sequestration | reduced formation of the foci; also recorded: effectively reduce the formation of foci | bind to FAM-CUG10 | modify the hairpin loops | partially reversed splicing defects | – | –
C[N+](C)(C)CCc1cc2c(c3c1ccc1ccccc13)OCO2 [VLT025] | relieve MBNL1 sequestration | effectively reduce the formation of foci | bind to FAM-CUG10 | modify the hairpin loops | – | noteworthy decreases | partially reversed splicing defects

From patent publication US20160194274A1, “PHENANTHRENE DERIVATIVES FOR USE AS MEDICAMENTS” (VALENTIA BIOPHARMA, priority 2012, published 2016)
